Patent publication US6821991B2, “2-substituted thiazolidinones as β-3 adrenergic receptor agonists” (Wyeth, priority 2000, dated 2004)

How the values were obtained:
β3-adrenergic receptor = molecular target: T1, β3-adrenergic receptor (Homo sapiens, UniProt P13945); experiment: cAMP accumulation (SPA) in CHO cells transfected with human β3 adrenergic receptor; type: cell-based; conditions: for EC50: CHO cells expressing human β3-AR, cAMP, 30 min, 37° C., 10^-9 M to 10^-5 M; for IA(β3): maximal response relative to maximal response of isoproterenol at 10^-5 M
T1 construct: Full length β3 AR clones (402 amino acids) containing the last 6 amino acids of hβ3-AR are prepared; expressed in transfected cells; host or cells: CHO (Chinese hamster ovary) cells
T1 sequence (P13945 whole entry): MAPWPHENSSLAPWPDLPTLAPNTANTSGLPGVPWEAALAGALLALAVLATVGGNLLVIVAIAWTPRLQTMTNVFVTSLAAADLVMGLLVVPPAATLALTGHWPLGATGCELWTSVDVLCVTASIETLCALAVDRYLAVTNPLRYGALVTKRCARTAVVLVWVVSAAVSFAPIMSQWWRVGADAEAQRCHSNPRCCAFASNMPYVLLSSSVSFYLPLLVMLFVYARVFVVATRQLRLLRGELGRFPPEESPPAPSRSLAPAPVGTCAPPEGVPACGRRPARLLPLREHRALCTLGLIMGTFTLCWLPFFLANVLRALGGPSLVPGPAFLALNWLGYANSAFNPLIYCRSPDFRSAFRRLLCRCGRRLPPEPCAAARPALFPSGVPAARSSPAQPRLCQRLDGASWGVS
Method: The ability of compounds of this invention to treat or inhibit disorders related to insulin resistance or hyperglycemia was established with representative compounds of this invention in the following standard pharmacological test procedures, which measured the binding selectivity to the β1, β2, and β3 adrenergic receptors. Binding to the receptors was measured in Chinese Hamster ovary (CHO) cells that were transfected with adrenergic receptors.
Cloning of Human β3-AR Genomic DNA: CDNA was constructed by ligating four polymerase chain reaction (PCR) products using the following primers: an ATG-Narl fragment, sense primer 5′-[…]3′, and anti-sense primer 5′[…]3′; a Narl-Accl fragment, 5′[…]3′ as sense and 5′[…]3′ as anti-sense primer; an Accli-Styl fragment, sense primer 5′[…]3′ and anti-sense primer 5′[…]3′ and a Styl-TAG fragment, with sense primer 5′[…]3′ and anti-sense primer 5′[…]3′. The corresponding primer sequences are described in Mantzoros, C. […] The four fragments are ligated into a pUC 18 plasmid (Gibco-BRL) and sequenced.
Binding Procedure: Clones expressing receptor levels of 70 to 110 fmoles/mg protein were used in the test procedures. CHO cells were grown in 24-well tissue culture plates in Dulbecco's Modified Eagle Media with 10% fetal bovine serum, MEM non-essential amino acids, Penicillin-Streptompycin and Geneticin. On the day of test procedure, growth medium was replaced with preincubation media (Dulbecco's Modified Eagle Media) and incubated for 30 minutes at 37° C. […] Test compounds were tested over a concentration range of 10^−9 M to 10^−5 M for β3 cells and 10^−8 to 10^−4 M for β1 and β2 transfected cells. Isoproterenol (10^−5 M) was used as an internal standard for comparison of activity. Cells were incubated at 37° C. on a rocker for 30 min with the β3 cells and 15 min for β1 and β2 cells. Incubation was stopped with the addition of 0.2N HCl and neutralized with 2.5N NaOH. The plates, containing the cells and neutralized media, were stored at −20 degrees celsius until ready to test for cAMP using the SPA test kit (Amersham).
Data Analysis and Results: Data collected from the SPA test procedure were analyzed as per cent of the maximal isoproterenol response at 10^−5 M. Activity curves were plotted using the SAS statistical and graphics software.

Row | Compound | EC50 (β3-adrenergic receptor) [nM] | IA(β3) (β3-adrenergic receptor) | melting point
1 | CCOC(=O)CC[C@H](NC1=NC(=O)C(=Cc2ccc(N3CCC(NC[C@H](O)c4ccc(O)c(NS(C)(=O)=O)c4)CC3)cc2)S1)C(=O)OCC [Example 30, (2S)-2-[5-(4-{4-[(2R)-2-Hydroxy-2-(4-hydroxy-3-methanesulfonylamino-phenyl)-ethylamino]-piperidin-1-yl}-benzylidene)-4-oxo-4,5-dihydro-thiazol-2-ylamino]-pentanedioic acid diethyl ester] | 1 | 1.0 | > 130 °C (dec.)
2 | O=C1N=C(N2CCOCC2)SC1=Cc1ccc(N2CCC(NC[C@H](O)c3cccc(Cl)c3)CC2)cc1 [Example 25, 5-(4-{4-[(2R)-2-(3-Chloro-phenyl)-2-hydroxy-ethylamino]-piperidin-1-yl}-benzylidene)-2-morpholin-4-yl-thiazol-4-one] | 450 | 0.51 | > 70 °C (dec.)
